Results as given in patent US5770178A, “Metal chelate forming peptides and use thereof” (Nihon Medi-Physics Co., Ltd., priority 1994, dated 1998).
Where no end group is shown, it is not given here.

Assays:
[1] = system: Tumor cells HEp2 (Human Epidermoid Carcinoma); assay: Imaging of tumor in model mouse, tumor/muscle radioactivity ratio; type: in vivo, BALB/C nude mouse; settings: i.v.
Method: Tumor cells HEp2 (5×10^6 cells, Human Epidermoid Carcinoma; ATCC No. CCL 23) were suspended in 1.0 ml of medium (Minimum essential medium (Eagle's) with Earle's BSS, 90% fetal bovine serum, 10%), and 100 μl of the suspension was subcutaneously injected to BALB/C nude mouse (6 weeks age) at the body side. […] Five and 20 minutes after the injection, the animal was imaged with a gamma camera.
Immediately after the imaging, the animal was sacrificed and examined for the distribution of the radioactivity in each organ using NaI single channel analyzer to determine a ratio of the radioactivity in tumor site to the radioactivity in muscle site (T/B ratio).

[2] = system: inflammation site (Staphylococcus aureus); settings: S. aureus inflammation rat, i.v.
Method: Staphylococcus aureus 10^8 cells were suspended in 1 ml of physiological saline, and 100 μl of the suspension was intramuscularly administered to SD rats weighing about 220 g at the right calf. […] Thirty and 120 minutes after the peptide was injected, the animal was imaged with a gamma camera. Regions of interest were selected from the obtained image to determine a ratio T/B of the radioactivity in inflammation site (T) to the radioactivity in normal site (B).

“Tc-99m-KYCAREPPTRTNAYWGQG (also: Tc-99m label)” was tested, and the “Imaging of tumor site (gamma camera)” value ([1]; 20 minutes after injection) was “clearly imaged” and the “ratio of the radioactivity in tumor site to the radioactivity in muscle site (T/B ratio)” value ([1]; twenty minutes after injection, n=3) was 4.50±0.71.

With Tc-99m-KYCGGKTKPREQQYNSTYRVV-NH2 the “Imaging of inflammation site (gamma camera)” value ([2]; 30 and 120 minutes after injection) was “clearly imaged” and the “ratio T/B of the radioactivity in inflammation site (T) to the radioactivity in normal site (B)” value ([2]; regions of interest of image, n=6) was 3.26±0.18.
